Experimental findings from patent publication US20110269763A1, “CRTH2 receptor ligands for medicinal uses” (7TM Pharma A/S, priority 2004, published 2011) are described below.

In test [1] the target is T1, human CRTH2 (Homo sapiens, UniProt Q9Y5Y4, V204A).
T1 sequence (Q9Y5Y4 1-395 V204A): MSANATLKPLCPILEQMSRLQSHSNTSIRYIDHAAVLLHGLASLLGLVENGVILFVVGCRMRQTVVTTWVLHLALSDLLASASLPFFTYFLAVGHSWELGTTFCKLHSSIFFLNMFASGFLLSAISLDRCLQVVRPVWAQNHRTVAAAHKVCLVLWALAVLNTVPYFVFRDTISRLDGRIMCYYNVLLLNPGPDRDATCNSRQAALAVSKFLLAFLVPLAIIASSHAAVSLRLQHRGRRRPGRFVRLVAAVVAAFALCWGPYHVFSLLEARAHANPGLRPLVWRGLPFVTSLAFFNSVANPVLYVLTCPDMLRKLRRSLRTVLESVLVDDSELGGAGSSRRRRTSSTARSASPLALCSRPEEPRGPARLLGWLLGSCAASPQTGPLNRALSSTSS
As to the kind of experiment: Functional antagonist BRET assay on HEK293 cells stably expressing human CRTH2-Rluc and GFP2-β-arr2. Type of test: cell-based. On the set-up: expressed in transfected cells. Particulars: read-out: Antag. IC50. From the text:
(§1) Generation/origin of the cDNA Constructs. The coding sequence of the human CRTH2 receptor (genbank accession no NM_004778) was amplified by PCR from a human hippocampus cDNA library and inserted into the pcDNA3.1(+) expression vector (invitrogen) via 5′ HindIII and 3′ EcoRI. To generate a CRTH2-Renilla luciferase (CRTH2-Rluc) fusion protein, the CRTH2 coding sequence without a STOP codon and Rluc were amplified, fused in frame by PCR and subcloned into the pcDNA3.1(+)Zeo expression vector (invitrogen). Human β-arrestin2 (β-arr2) N-terminally tagged with GFP^2 (βarr2-GFP^2) and Renilla luciferase were purchased from BioSignal Packard Inc, (Montreal, Canada). The sequence identity of the construct was verified by restriction endonuclease digests and sequencing in both directions on an ABI Prism (Applied Biosystems, Foster City, Calif.).
(§2) Cell Culture and Transfection. COS-7 cells were grown in Dulbecco's modified Eagle's medium (DMEM) 1885 supplemented with 10% fetal bovine serum, 100 units/ml penicillin, […] streptomycin, and kept at 37° C. in a 10% CO2 atmosphere. HEK293 cells were maintained in Minimum Essential medium (MEM) supplemented with 10% (v/v) heat inactivated fetal calf serum (HIFCS), 2 mM Glutamax™-I, 1% non essential amino acids (NEAA), 1% sodium pyruvate and 10 μg/ml gentamicin. For binding experiments, COS7 cells were transiently transfected with the CRTH2 receptor using a calcium phosphate-DNA coprecipitation method with the addition of chloroquine (as described by Holst et al., 2001↓). To perform the functional Bioluminescence Resonance Energy Transfer (BRET) assays, a HEK293 cell clone stably expressing βarr2-GFP^2 and CRTH2-Rluc was generated (CRTH2-HEK293 cells).
BRET assay. Functional BRET assays were performed on HEK293 cells stably expressing human CRTH2-Rluc and GFP^2-β-arr2. Prior to their use in the BRET assay cells were detached and re-suspended in D-PBS with 1000 mg/L L-Glucose at a density of 2×10^6 cells/mL. DeepBlueC™ was diluted to 50 μM in D-PBS with 1000 mg/L L-Glucose (light sensitive). 100 μL of cell suspension was transferred to wells in a 96-well microplate (white OptiPlate) and placed in the Mithras LB 940 instrument (BERTHOLD TECHNOLOGIES, Bad Wildbad, Germany). 12 μL/well agonist was then injected by injector 1 and 10 μL/well DeepBlueC™ was injected simultaneously by injector 2. Five seconds after the injections the light output from the well was measured sequentially at 400 nm and 515 nm, and the BRET signal (mBRET ratio) was calculated by the ratio of the fluorescence emitted by GFP^2-β-arr2 (515 nm) over the light emitted by the receptor-Rluc (400 nm). Antagonists were added before placing the microplates into the Mithras LB 940 and allowed to incubate for 15 minutes prior to the addition of agonist and DeepBlueC™. Compounds were dissolved in DMSO and the final DMSO concentration was kept constant at 1% in the assay.
(§3) Curve analysis was performed with the GraphPadPrism software 3.0 (Graphpad Prism Inc., San Diego, USA) and IC50 values were calculated as a measure of the antagonistic potencies.

Test [2] concerns the target T1, human CRTH2. As to the kind of experiment: Receptor binding assay: [3H]PGD2 competition binding on whole COS-7 cells transiently transfected with CRTH2 (also stable HEK293 cells). On the set-up: expressed in transfected cells; host or cells: COS-7 (transient, calcium phosphate).
Description: as §1, §2
Binding assay. 24 h after transfection COS-7 cells were seeded into 96 well plates at a density of 30.000 cells/well. Competition binding experiments on whole cells were then performed about 18-24 h later using 0.1 nM [^3H]PGD2 (NEN, 172 Ci/mmol) in a binding buffer consisting of HBSS (GIBCO) and 10 mM HEPES. Competing ligands were diluted in DMSO which was kept constant at 1% (v/v) of the final incubation volume. Total and nonspecific binding were determined in the absence and presence of 10 μM PGD2. Binding reactions were routinely conducted for 3 h at 4° C. and terminated by 2 washes (100 μl each) with ice cold binding buffer. Radioactivity was determined by liquid scintillation counting in a TOPCOUNTER (Packard) following over night incubation in Microscint 20. Stable HEK293 cells were seeded at a density of 30.000 cells/well 18-24 h prior to the binding assay which was performed essentially as described for COS7 cells above. Determinations were made in duplicates.
as §3

Where [3] appears, read: BRET, antagonist incubated 15 minutes prior to agonist.
The mark [4] stands for this setting: competition with 0.1 nM [3H]PGD2, whole cells, 3 h at 4° C.
The mark [5] stands for this setting: functional antagonist assay, Table 3.
The mark [6] stands for this setting: receptor binding assay, Table 3.

Where only a bound is given, the exact number is not on record here.

One may read the IC50 as the concentration at which inhibition is half-maximal.

Regarding `O=C(O)COc1ccc(Br)cc1C(=O)c1cnn(-c2ccccc2Br)c1` [D21, 4-Bromo-2-[1-(2-bromophenyl)-1H-pyrazole-4-carbonyl]phenoxyacetic acid], the concentration for half-maximal inhibition (IC50) on human CRTH2 [1] (setting [3]) and at human CRTH2 [2] (setting [4]) was below 500 nM in each case.
For `COc1ccccc1Cc1noc(-c2cc(Br)ccc2OCC(=O)O)n1` [D119, {4-Bromo-2-[3-(2-methoxy-benzyl)-[1,2,4]oxadiazol-5-yl]-phenoxy}-acetic acid], the IC50 on human CRTH2 [1] (setting [5]) and at human CRTH2 [2] (setting [6]) was below 500 nM throughout.
As to `CC(Oc1ccc(Br)cc1C(=O)c1cnn(-c2ccc(Cl)cc2Cl)c1)C(=O)O` (centres unmarked) [D51, 2-{4-Bromo-2-[1-(2,4-dichlorophenyl)-1H-pyrazole-4-carbonyl]phenoxy}propionic acid], the IC50 at human CRTH2 [1] (setting [3]) and on human CRTH2 [2] (setting [4]) was below 500 nM throughout.
As to `CC(Oc1ccc(Br)cc1C(=O)c1cnn(-c2c(Cl)cccc2Cl)c1)C(=O)O` (centres unmarked) [D39, 2-{4-Bromo-2-[1-(2,6-dichlorophenyl)-1H-pyrazole-4-carbonyl]phenoxy}propionic acid], the concentration for half-maximal inhibition (IC50) on human CRTH2 [1] (setting [3]) and at human CRTH2 [2] (setting [4]) was below 500 nM throughout.
As for `O=C(O)COc1ccc(Br)cc1C=NNc1cccc2cccnc12` [D150], the 50% inhibitory concentration (IC50) at human CRTH2 [1] (setting [3]) is above 5000 nM; on human CRTH2 [2] (setting [4]), below 500 nM.
For `O=C(O)COc1ccccc1C=NNC(=O)COc1ccc(Cl)cc1Cl` [D149], in that order: below 500 nM and below 500 nM.
For `N#Cc1ccccc1-n1cc(C(=O)c2cc(Br)ccc2OCC(=O)O)cn1` [D40, {4-Bromo-2-[1-(2-cyano-phenyl)-1H-pyrazole-4-carbonyl]phenoxy}acetic acid], in that order: below 500 nM and below 500 nM.
The like results for `O=C(O)COc1c(Cl)cc(Cl)cc1C(=O)c1cnn(-c2ccccc2)c1` [D13, [2,4-Dichloro-6-(1-phenyl-1H-pyrazole-4-carbonyl)phenoxy]acetic acid] were, in that order, above 5000 nM and above 5000 nM.
In the case of `CC(Oc1ccc(Br)cc1C(=O)c1cnn(Cc2ccccc2)c1)C(=O)O` (centres unmarked) [D57, 2-[2-(1-Benzyl-1H-pyrazole-4-carbonyl)-4-bromophenoxy]propionic acid], the IC50 at human CRTH2 [1] (setting [3]) and at human CRTH2 [2] (setting [4]) was below 500 nM in each case.
With `O=C(O)COc1ccc(Br)cc1C(=O)c1cnn(-c2ccccc2C(F)(F)F)c1` [D23, 4-Bromo-2-[1-(2-trifluoromethylphenyl)-1H-pyrazole-4-carbonyl]phenoxyacetic acid], the IC50 at human CRTH2 [1] (setting [3]) and on human CRTH2 [2] (setting [4]) was below 500 nM each time.
Regarding `C[C@H](Oc1ccc(Br)cc1C(=O)c1cnn(-c2ccccc2)c1)C(=O)O` [(S)-D37, 2(S)-[4-Bromo-2-(1-phenyl-1H-pyrazole-4-carbonyl)-phenoxy]-propionic acid], the IC50 at human CRTH2 [1] (setting [3]) and on human CRTH2 [2] (setting [4]) was below 500 nM in each case.
For `O=C(O)COc1ccc(Br)cc1-c1csc(Cc2ccc(Cl)cc2)n1` [D94, {4-Bromo-2-[2-(4-chlorobenzyl)thiazol-4-yl]phenoxy}acetic acid], the IC50 on human CRTH2 [1] (setting [3]) and at human CRTH2 [2] (setting [4]) was below 500 nM in each case.
`CCc1cccc(C)c1-n1cc(C(=O)c2cc(Br)ccc2OCC(=O)O)cn1` [D72, {4-Bromo-2-[1-(2-ethyl-6-methylphenyl)-1H-pyrazole-4-carbonyl]phenoxy}acetic acid]: the IC50 on human CRTH2 [1] (setting [3]) and on human CRTH2 [2] (setting [4]) was below 500 nM each time.
For the compound `Cc1ccc(CN2C(=O)SC(Cc3cc(Br)ccc3OCC(=O)O)C2=O)cc1` (centres unmarked) [D142, 4-Bromo-2-[3-(4-methylbenzyl)-2,4-dioxothiazolidin-5-ylmethyl]phenoxyacetic acid], the IC50 on human CRTH2 [1] (setting [3]) and on human CRTH2 [2] (setting [4]) was below 500 nM in each case.
Take `Cc1ccc(-n2cc(C(=O)c3cc(Br)ccc3OC(C)C(=O)O)cn2)c(Br)c1` (centres unmarked) [D50, 2-{4-Bromo-2-[1-(2-bromo-4-methylphenyl)-1H-pyrazole-4-carbonyl]phenoxy}propionic acid]: the IC50 at human CRTH2 [1] (setting [3]) and on human CRTH2 [2] (setting [4]) was below 500 nM in each case.
As for `O=C(O)COc1ccc(Br)cc1-c1nc(-c2ccc(C(F)(F)F)cc2)no1` [D106, {4-Bromo-2-[3-(4-trifluoromethyl-phenyl)-[1,2,4]oxadiazol-5-yl]phenoxy}-acetic acid], the IC50 on human CRTH2 [1] (setting [5]) and on human CRTH2 [2] (setting [6]) was below 500 nM throughout.
With `O=C(O)COc1ccc(Br)cc1CN1CC(=O)N(Cc2ccc(Cl)cc2)C1=O` [D139, 4-Bromo-2-[3-(4-chlorobenzyl)-2,4-dioxoimidazolidin-1-ylmethyl]phenoxyacetic acid], the IC50 on human CRTH2 [1] (setting [3]) and at human CRTH2 [2] (setting [4]) was below 500 nM throughout.
Turning to `O=C(O)COc1ccc(Br)cc1CC1SC(=O)N(CC(=O)c2ccc(Cl)cc2)C1=O` (centres unmarked) [D143, 4-Bromo-2-{3-[2-(4-chlorophenyl)-2-oxoethyl]-2,4-dioxothiazolidin-5-ylmethyl}phenoxyacetic acid], the 50% inhibitory concentration (IC50) on human CRTH2 [1] (setting [3]) and on human CRTH2 [2] (setting [4]) was below 500 nM in each case.
`O=C(O)COc1ccc(Br)cc1C(=O)c1cnn(Cc2ccccc2)c1` [D56, [2-(1-Benzyl-1H-pyrazole-4-carbonyl)-4-bromophenoxy]acetic acid]: the IC50 at human CRTH2 [1] (setting [3]) and at human CRTH2 [2] (setting [4]) was below 500 nM each time.
`O=C(O)COc1ccc(Br)cc1-c1noc(-c2ccccc2)n1` [D138, [4-Bromo-2-(5-phenyl-[1,2,4]oxadiazol-3-yl)phenoxy]acetic acid]: the IC50 was above 5000 nM on human CRTH2 [1] (setting [3]) and below 500 nM on human CRTH2 [2] (setting [4]).
The like results for `Cc1ccc(-n2cc(C(=O)c3cc(Br)ccc3OC(C)C(=O)O)cn2)c(C)c1` (centres unmarked) [D55, 2-{4-Bromo-2-[1-(2,4-dimethylphenyl)-1H-pyrazole-4-carbonyl]phenoxy}propionic acid] were, in that order, below 500 nM and below 500 nM.
With `O=C(O)COc1ccc(Br)cc1-c1nc(Cc2ccc(F)cc2)no1` [D116, {4-Bromo-2-[3-(4-fluoro-benzyl)-[1,2,4]oxadiazol-5-yl]-phenoxy}-acetic acid], the 50% inhibitory concentration (IC50) on human CRTH2 [1] (setting [5]) and at human CRTH2 [2] (setting [6]) was below 500 nM in each case.
Turning to `CSc1ccccc1-n1cc(C(=O)c2cc(Br)ccc2OCC(=O)O)cn1` [D44, {4-Bromo-2-[1-(2-methylthiophenyl)-1H-pyrazole-4-carbonyl]phenoxy}acetic acid], the IC50 on human CRTH2 [1] (setting [3]) and at human CRTH2 [2] (setting [4]) was below 500 nM in each case.
As to `O=C(O)COc1ccc(Br)cc1C(=O)c1cc(-c2c(Cl)cccc2Cl)no1` [D98, {4-Bromo-2-[3-(2,6-dichloro-phenyl)isoxazole-5-carbonyl]phenoxy}acetic acid], on human CRTH2 [2] (setting [4]), the IC50 is below 500 nM.
